From PubChem BioAssay AID248 (DTP/NCI, 2004)
Where “and” joins values, the source holds several entries; their conditions need not be identical. Identical values can stand only once. Toxic doses and inconclusive results are not listed. No stated cut-off is given here; in the data, active means T/C of 150% or more; inactive means T/C below 125%.

System: L1210 leukemia ip in BDF1 mice, survival T/C
Experiment: NCI In Vivo Anticancer Drug Screen. Data for tumor model L1210 Leukemia (intraperitoneal) in B6D2F1 (BDF1) mice
Conditions: higher = longer survival
Outline: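 Mice bearing the transplanted tumor received compound or vehicle. Survival of the treated group was divided by that of the vehicle-treated control group to give the ratio.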

[1] = endpoint: mean survival time, dose: 100.0 mg/kg/injection, schedule: Q01DX009 (ip), vehicle: Klucel (hydroxypropylcellulose) (HPC)
[2] = endpoint: mean survival time, dose: 100.0 mg/kg/injection, schedule: Q04DX003 (ip), vehicle: Klucel (hydroxypropylcellulose) (HPC)
[3] = endpoint: mean survival time, dose: 200.0 mg/kg/injection, schedule: Q01DX009 (ip), vehicle: Klucel (hydroxypropylcellulose) (HPC)
[4] = endpoint: mean survival time, dose: 200.0 mg/kg/injection, schedule: Q04DX003 (ip), vehicle: Klucel (hydroxypropylcellulose) (HPC)
[5] = endpoint: mean survival time, dose: 400.0 mg/kg/injection, schedule: Q01DX009 (ip), vehicle: Klucel (hydroxypropylcellulose) (HPC)
[6] = endpoint: mean survival time, dose: 400.0 mg/kg/injection, schedule: Q04DX003 (ip), vehicle: Klucel (hydroxypropylcellulose) (HPC)
[7] = endpoint: mean survival time, dose: 50.0 mg/kg/injection, schedule: Q01DX009 (ip), vehicle: Klucel (hydroxypropylcellulose) (HPC)
[8] = endpoint: mean survival time, dose: 100.0 mg/kg/injection, schedule: Q01DX001 (ip), vehicle: carboxymethylcellulose (CMC)
[9] = endpoint: mean survival time, dose: 200.0 mg/kg/injection, schedule: Q01DX001 (ip), vehicle: carboxymethylcellulose (CMC)
[10] = endpoint: mean survival time, dose: 400.0 mg/kg/injection, schedule: Q01DX001 (ip), vehicle: carboxymethylcellulose (CMC)

Measured: T/C

CC1OC(OC2C(O)CC(OC3C(O)CC(OC4CCC5(C)C(CCC6C5CCC5(C)C(C7=CC(=O)OC7)CCC65O)C4)OC3C)OC2C)CC(O)C1O (stereo not given)
inactive: endpoint: mean survival time, dose: 1.0 mg/kg/injection, schedule: Q01DX015 (sc), vehicle: steriod suspending solution 93 % of control | endpoint: mean survival time, dose: 2.0 mg/kg/injection, schedule: Q01DX015 (sc), vehicle: steriod suspending solution 98 % of control | endpoint: mean survival time, dose: 4.0 mg/kg/injection, schedule: Q01DX015 (sc), vehicle: steriod suspending solution 101 % of control | endpoint: mean survival time, dose: 8.0 mg/kg/injection, schedule: Q01DX015 (sc), vehicle: steriod suspending solution 102 % of control | endpoint: mean survival time, dose: 10.0 mg/kg/injection, schedule: Q01DX001 (ip), vehicle: saline 106 % of control | endpoint: mean survival time, dose: 16.0 mg/kg/injection, schedule: Q01DX015 (sc), vehicle: steriod suspending solution 105 % of control | endpoint: mean survival time, dose: 20.0 mg/kg/injection, schedule: Q01DX001 (ip), vehicle: saline 105 % of control | endpoint: mean survival time, dose: 32.0 mg/kg/injection, schedule: Q01DX015 (sc), vehicle: steriod suspending solution 101 % of control | endpoint: mean survival time, dose: 40.0 mg/kg/injection, schedule: Q01DX001 (ip), vehicle: saline 103 % of control | endpoint: median survival time, dose: 0.5 mg/kg/injection, schedule: Q01DX005 (iv), vehicle: water 99 % of control | endpoint: median survival time, dose: 0.5 mg/kg/injection, schedule: Q01DX010 (ip), vehicle: methylcellulose (MC) 91 % of control | endpoint: median survival time, dose: 0.5 mg/kg/injection, schedule: Q01DX010 (ip), vehicle: water 99 % of control and 100 % of control | endpoint: median survival time, dose: 1.0 mg/kg/injection, schedule: Q01DX005 (iv), vehicle: water 99 % of control | endpoint: median survival time, dose: 1.0 mg/kg/injection, schedule: Q01DX010 (ip), vehicle: methylcellulose (MC) 102 % of control | endpoint: median survival time, dose: 1.0 mg/kg/injection, schedule: Q01DX010 (ip), vehicle: water 99 % of control and 100 % of control | endpoint: median survival time, dose: 1.0 mg/kg/injection, schedule: Q04DX003 (ip), vehicle: water 99 % of control and 100 % of control | endpoint: median survival time, dose: 1.0 mg/kg/injection, schedule: Q04DX003 (iv), vehicle: water 96 % of control | endpoint: median survival time, dose: 2.0 mg/kg/injection, schedule: Q01DX005 (ip), vehicle: water 95 % of control | endpoint: median survival time, dose: 2.0 mg/kg/injection, schedule: Q01DX005 (iv), vehicle: water 100 % of control | endpoint: median survival time, dose: 2.0 mg/kg/injection, schedule: Q01DX010 (ip), vehicle: methylcellulose (MC) 104 % of control | endpoint: median survival time, dose: 2.0 mg/kg/injection, schedule: Q01DX010 (ip), vehicle: water 105 % of control and 111 % of control | endpoint: median survival time, dose: 2.0 mg/kg/injection, schedule: Q04DX003 (ip), vehicle: water 95 % of control | endpoint: median survival time, dose: 2.0 mg/kg/injection, schedule: Q04DX003 (iv), vehicle: water 92 % of control | endpoint: median survival time, dose: 4.0 mg/kg/injection, schedule: Q01DX005 (ip), vehicle: water 109 % of control | endpoint: median survival time, dose: 4.0 mg/kg/injection, schedule: Q01DX005 (iv), vehicle: water 106 % of control | endpoint: median survival time, dose: 4.0 mg/kg/injection, schedule: Q01DX010 (ip), vehicle: methylcellulose (MC) 103 % of control | endpoint: median survival time, dose: 4.0 mg/kg/injection, schedule: Q01DX010 (ip), vehicle: water 102 % of control and 105 % of control | endpoint: median survival time, dose: 4.0 mg/kg/injection, schedule: Q04DX003 (ip), vehicle: water 100 % of control | endpoint: median survival time, dose: 4.0 mg/kg/injection, schedule: Q04DX003 (iv), vehicle: water 93 % of control | endpoint: median survival time, dose: 8.0 mg/kg/injection, schedule: Q01DX005 (ip), vehicle: water 113 % of control | endpoint: median survival time, dose: 8.0 mg/kg/injection, schedule: Q01DX005 (iv), vehicle: water 86 % of control | endpoint: median survival time, dose: 8.0 mg/kg/injection, schedule: Q01DX010 (ip), vehicle: water 102 % of control and 105 % of control | endpoint: median survival time, dose: 8.0 mg/kg/injection, schedule: Q04DX003 (ip), vehicle: water 86 % of control | endpoint: median survival time, dose: 8.0 mg/kg/injection, schedule: Q04DX003 (iv), vehicle: water 93 % of control | endpoint: median survival time, dose: 16.0 mg/kg/injection, schedule: Q01DX010 (ip), vehicle: water 93 % of control and 94 % of control | endpoint: median survival time, dose: 16.0 mg/kg/injection, schedule: Q04DX003 (ip), vehicle: water 93 % of control | endpoint: median survival time, dose: 16.0 mg/kg/injection, schedule: Q04DX003 (iv), vehicle: water 68 % of control

[CH3][Sb]1([CH3])([CH3])[O]S(=O)(=O)[O]1
inactive: endpoint: mean survival time, dose: 75.0 mg/kg/injection, schedule: Q01DX001 (ip), vehicle: saline 97 % of control | endpoint: mean survival time, dose: 150.0 mg/kg/injection, schedule: Q01DX001 (ip), vehicle: saline 102 % of control | endpoint: mean survival time, dose: 300.0 mg/kg/injection, schedule: Q01DX001 (ip), vehicle: saline 105 % of control

COc1ccc2c(c1)CN(C)CC2
inactive: endpoint: mean survival time, dose: 75.0 mg/kg/injection, schedule: Q01DX001 (ip), vehicle: other 108 % of control

O=C(NCCBr)Nc1ccccc1C(F)(F)F
inactive: [1] 103 % of control | [2] 112 % of control | [3] 105 % of control | [4] 103 % of control | [5] 107 % of control | [6] 93 % of control

CC1(C)N(C(=S)Nc2ccccc2)C1(C)C
inactive: [7] 106 % of control | endpoint: mean survival time, dose: 50.0 mg/kg/injection, schedule: Q04DX003 (ip), vehicle: Klucel (hydroxypropylcellulose) (HPC) 92 % of control | [1] 95 % of control | [2] 103 % of control | [3] 92 % of control | [4] 102 % of control

CC1(C)OC(COS(C)(=O)=O)C2OC(C)(C)OC(COS(C)(=O)=O)C2O1 (stereo not given)
inactive: [8] 104 % of control | [9] 101 % of control | [10] 104 % of control

Cc1sc([N+](=O)[O-])cc1[N+](=O)[O-]
inactive: [7] 103 % of control | [1] 92 % of control | [2] 97 % of control | [4] 96 % of control

O/N=C/c1ccco1
inactive: endpoint: mean survival time, dose: 100.0 mg/kg/injection, schedule: Q04DX002 (ip), vehicle: saline with Tween-80 100 % of control | endpoint: mean survival time, dose: 200.0 mg/kg/injection, schedule: Q04DX002 (ip), vehicle: saline with Tween-80 103 % of control | endpoint: mean survival time, dose: 400.0 mg/kg/injection, schedule: Q04DX002 (ip), vehicle: saline with Tween-80 103 % of control

CCN(CC)CCCCCOC(=O)c1ccccc1
inactive: [7] 92 % of control | [2] 97 % of control | [3] 96 % of control | [4] 107 % of control

CC(=O)Nc1cc([N+](=O)[O-])ccc1CC(O)c1ccccc1Cl (stereo not given)
inactive: [1] 92 % of control | [2] 97 % of control | [3] 103 % of control | [4] 108 % of control | [5] 104 % of control | [6] 103 % of control

CC1CCCN(N=Nc2ccc(Br)cc2-c2nc(N)c3cc(Br)ccc3n2)C1 (stereo not given)
inactive: endpoint: mean survival time, dose: 25.0 mg/kg/injection, schedule: Q01DX001 (ip), vehicle: Klucel (hydroxypropylcellulose) (HPC) 97 % of control | endpoint: mean survival time, dose: 50.0 mg/kg/injection, schedule: Q01DX001 (ip), vehicle: Klucel (hydroxypropylcellulose) (HPC) 105 % of control | endpoint: mean survival time, dose: 100.0 mg/kg/injection, schedule: Q01DX001 (ip), vehicle: Klucel (hydroxypropylcellulose) (HPC) 102 % of control

Nc1cccc(C(=O)c2cccc(N)c2)c1
inactive: [8] 96 % of control | [9] 94 % of control | [10] 88 % of control

CCCCN1C(c2ccccc2)=CN(Cc2ccccc2)C=C1c1ccccc1
inactive: endpoint: mean survival time, dose: 100.0 mg/kg/injection, schedule: Q04DX002 (ip), vehicle: Klucel (hydroxypropylcellulose) (HPC) 106 % of control | endpoint: mean survival time, dose: 200.0 mg/kg/injection, schedule: Q04DX002 (ip), vehicle: Klucel (hydroxypropylcellulose) (HPC) 110 % of control | endpoint: mean survival time, dose: 400.0 mg/kg/injection, schedule: Q04DX002 (ip), vehicle: Klucel (hydroxypropylcellulose) (HPC) 103 % of control

CC(=O)CC(=O)N1CCCCC1C (stereo not given)
inactive: [2] 104 % of control | [4] 101 % of control | [6] 97 % of control
